Here are results for 17 compounds from patent US20260109708A1, “COMPOUNDS AND COMPOSITIONS USEFUL AS DEGRADERS OF MK2 KINASE” (Celgene Corporation, priority 2023, published 2026).

T1 sequence (P49137 whole entry): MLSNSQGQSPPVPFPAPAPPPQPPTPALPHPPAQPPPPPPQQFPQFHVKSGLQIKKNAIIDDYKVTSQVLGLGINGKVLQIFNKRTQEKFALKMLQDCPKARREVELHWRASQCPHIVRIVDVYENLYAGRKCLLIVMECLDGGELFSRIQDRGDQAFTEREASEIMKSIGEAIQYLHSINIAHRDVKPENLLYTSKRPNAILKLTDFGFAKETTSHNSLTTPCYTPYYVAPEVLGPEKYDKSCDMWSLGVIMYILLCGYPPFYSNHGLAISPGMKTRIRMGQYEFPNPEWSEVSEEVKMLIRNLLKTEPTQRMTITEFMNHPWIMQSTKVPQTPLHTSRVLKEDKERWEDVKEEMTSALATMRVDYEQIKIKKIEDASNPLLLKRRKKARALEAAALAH

The assay addresses T1, p38a activated, mitogen-activated protein kinase-activated protein kinase 2 (MAPKAP-K2 or MK2) enzyme (Homo sapiens, UniProt P49137).
T1 construct: purchased Invitrogen PV3317
Nature of the assay: MK2 OMNIA biochemical assay (AssayQuant continuous-read kinase assay). To be noted: [MK-2]=0.05 nM, [ATP]=100 μM, [AQT0425]=10 μM. An excerpt:
Example 56.2. Mitogen-Activated Protein Kinase-Activated Protein Kinase 2 AssayQuant Technologies® Assay for Compound Potency Assessment (MK2 OMNIA Biochemical Assay)
The protocol below describes a continuous-read kinase assay optimized to measure potency of compounds against p38a activated, mitogen-activated protein kinase-activated protein kinase 2 (MAPKAP-K2 or MK2) enzyme.
A 1.25× stock solution of MK2 (PV3317, from Invitrogen) and a 5× stock solution of ATP and Sox conjugated peptide substrate, AQT0425 (CSKS-AQT0425B, from AssayQuant Technologies), were prepared in 1× kinase reaction buffer consisting of 50 mM HEPES, pH 7.5, 0.01% Brij-35, 0.55 mM EGTA, 10 mM MgCl2 and 1 mM DTT.
10 μL of the ATP and substrate solution mix was added to a Coming (3574) 384-well, white, non-binding surface microtiter plate containing 0.5 μL of serially diluted test compounds prepared in DMSO. The reactions were started with the addition of 40 μL of the enzyme solution and monitored every 71 seconds for 240 min at kex 360/λem 485 in a Synergy H4 plate reader from BioTek at room temperature.
The initial linear portions of the net progress curves were fit according to a linear equation to yield the slope and percentage of inhibition (% inhibition) at each compound concentration. The net progress curves obtained during the entirety of reactions were also fit according to an ascending single-exponential equation (Eq. 1) to yield Vobs values at each compound concentration. Plots of % Inhibition versus degrader concentrations were fit according to a dose-response equation (Eq. 2) to generate IC50 and Hill slope values while plots of Vobs versus degrader concentration were fit according to Equation 3 (Eq. 3) to generate apparent Kinact values using the GraphPad PRISM software.
where F is the fluorescence intensity from the plate reader, V0 is a constant reflecting the relationship between the instrument readout and product concentration, t is time, e is Euler's number, and Vobs is the observed inactivation rate constant.
where % Inhibition is percentage of inhibition, IC50 is half maximal inhibitory concentration, [I] is the degraders concentration, and n is the Hill slope.
where kobs is the observed inactivation rate constant, Kinact is the apparent inactivation rate constant, K1 is the apparent inhibition constant, and [I] is the degrader concentration.
In general, IC50 refers to the concentration needed to halve the response being measured. In the case of `C[C@@H]1CNc2c(sc3ccc4nc(-c5cnn(C6CCN(CCN7CCN(c8ccc(C9CCC(=O)NC9=O)cc8)CC7)CC6)c5)ccc4c23)C(=O)N1` (stereo partly drawn) [Ex 43, 3-(4-(4-(2-(4-(4-((R)-10-Methyl-8-oxo-9,10,11,12-tetrahydro-8H-[1,4]diazepino[5′,6′:4,5]thieno[3,2-f]quinolin-3-yl)-1H-pyrazol-1-yl)piperidin-1-yl)ethyl)piperazin-1-yl)phenyl)piperidine-2,6-dione], the 50% inhibitory concentration (IC50) is below 150 nM.
To `C[C@@H]1CNc2c(sc3ccc4nc(-c5cn(C6CCN(CCN7CCN(c8ccc9c(C%10CCC(=O)NC%10=O)nn(C)c9c8)CC7)CC6)nn5)ccc4c23)C(=O)N1` (stereo partly drawn) [Ex 50, 3-(1-Methyl-6-(4-(2-(4-(4-((R)-10-methyl-8-oxo-9,10,11,12-tetrahydro-8H-[1,4]diazepino[5′,6′:4,5]thieno[3,2-f]quinolin-3-yl)-1H-1,2,3-triazol-1-yl)piperidin-1-yl)ethyl)piperazin-1-yl)-1H-indazol-3-yl)piperidine-2,6-dione] belongs below 150 nM; to `C[C@@H]1CNc2c(sc3ccc4nc(-c5ccc(C(=O)NC6CCN(c7ccc8c(C9CCC(=O)NC9=O)nn(C)c8c7)CC6)cc5F)ccc4c23)C(=O)N1` (stereo partly drawn) [Ex 1, N-(1-(3-(2,6-dioxopiperidin-3-yl)-1-methyl-1H-indazol-6-yl)piperidin-4-yl)-3-fluoro-4-((R)-10-methyl-8-oxo-9,10,11,12-tetrahydro-8H-[1,4]diazepino[5′,6′:4,5]thieno[3,2-f]quinolin-3-yl)benzamide], below 150 nM.
To `C[C@@H]1CNc2c(sc3ccc4nc(-c5ccc(C6CN(CCN7CCN(c8ccc(C9CCC(=O)NC9=O)cc8)CC7)C6)cc5)ccc4c23)C(=O)N1` (stereo partly drawn) [Ex 30, 3-(4-(4-(2-(3-(4-((R)-10-Methyl-8-oxo-9,10,11,12-tetrahydro-8H-[1,4]diazepino[5′,6′:4,5]thieno[3,2-f]quinolin-3-yl)phenyl)azetidin-1-yl)ethyl)piperazin-1-yl)phenyl)piperidine-2,6-dione] belongs below 150 nM; to `C[C@@H]1CNc2c(sc3ccc4nc(-c5ccc(C6=CCN(CCN7CCN(c8ccc(C9CCC(=O)NC9=O)cc8)CC7)CC6)cc5)ccc4c23)C(=O)N1` (stereo partly drawn) [Ex 31, 3-(4-(4-(2-(4-(4-((R)-10-Methyl-8-oxo-9,10,11,12-tetrahydro-8H-[1,4]diazepino[5′,6′:4,5]thieno[3,2-f]quinolin-3-yl)phenyl)-3,6-dihydropyridin-1(2H)-yl)ethyl)piperazin-1-yl)phenyl)piperidine-2,6-dione], below 150 nM.
The value for `C[C@@H]1CNc2c(sc3ccc4nc(-c5ccc(C(=O)N[C@H]6CC[C@H](CN7CCN(c8ccc9c(C%10CCC(=O)NC%10=O)nn(C)c9c8)CC7)CC6)cc5F)ccc4c23)C(=O)N1` (stereo partly drawn) [Ex 5, N-(trans-4-((4-(3-(2,6-dioxopiperidin-3-yl)-1-methyl-1H-indazol-6-yl)piperazin-1-yl)methyl)cyclohexyl)-3-fluoro-4-((R)-10-methyl-8-oxo-9,10,11,12-tetrahydro-8H-[1,4]diazepino[5′,6′:4,5]thieno[3,2-f]quinolin-3-yl)benzamide] was below 150 nM.
As to `C[C@@H]1COc2c(sc3ccc4nc(-c5ccc(N6CCN(CCN7CCN(c8ccc9c(C%10CCC(=O)NC%10=O)nn(C)c9c8)CC7)CC6)cc5)ccc4c23)C(=O)N1` (some centres unmarked) [Ex 26], the 50% inhibitory concentration (IC50) was below 150 nM.
To `C[C@@H]1CNc2c(sc3ccc4nc(-c5cccc(N6CCN(C(=O)C(=O)N7CCN(c8ccc9c(C%10CCC(=O)NC%10=O)nn(C)c9c8)CC7)CC6)c5)ccc4c23)C(=O)N1` (stereo partly drawn) [Ex 14, 3-(1-Methyl-6-(4-(2-(4-(3-((R)-10-methyl-8-oxo-9,10,11,12-tetrahydro-8H-[1,4]diazepino[5′,6′:4,5]thieno[3,2-f]quinolin-3-yl)phenyl)piperazin-1-yl)-2-oxoacetyl)piperazin-1-yl)-1H-indazol-3-yl)piperidine-2,6-dione] belongs below 150 nM; to `C[C@@H]1CNc2c(sc3ccc4nc(-c5cn(C6CCN(CCN7CCN(c8ccc(C9CCC(=O)NC9=O)cc8)CC7)CC6)nn5)ccc4c23)C(=O)N1` (stereo partly drawn) [Ex 49, 3-(4-(4-(2-(4-(4-((R)-10-Methyl-8-oxo-9,10,11,12-tetrahydro-8H-[1,4]diazepino[5′,6′:4,5]thieno[3,2-f]quinolin-3-yl)-1H-1,2,3-triazol-1-yl)piperidin-1-yl)ethyl)piperazin-1-yl)phenyl)piperidine-2,6-dione], below 150 nM; to `C[C@@H]1COc2c(sc3ccc4nc(-c5cccc(N6CCN(CCN7CCN(c8ccc9c(C%10CCC(=O)NC%10=O)nn(C)c9c8)CC7)CC6)c5)ccc4c23)C(=O)N1` (stereo partly drawn) [Ex 17, 3-(1-Methyl-6-(4-(2-(4-(3-((R)-10-methyl-8-oxo-8,9,10,11-tetrahydro-[1,4]oxazepino[7′,6′:4,5]thieno[3,2-f]quinolin-3-yl)phenyl)piperazin-1-yl)ethyl)piperazin-1-yl)-1H-indazol-3-yl)piperidine-2,6-dione], below 150 nM.
To `C[C@@H]1CNc2c(sc3ccc4nc(-c5cccc(C6CCN(CCN7CCN(c8ccc9c(C%10CCC(=O)NC%10=O)nn(C)c9c8)CC7)CC6)c5)ccc4c23)C(=O)N1` (stereo partly drawn) [Ex 19, 3-(1-Methyl-6-(4-(2-(4-(3-((R)-10-methyl-8-oxo-9,10,11,12-tetrahydro-8H-[1,4]diazepino[5′,6′:4,5]thieno[3,2-f]quinolin-3-yl)phenyl)piperidin-1-yl)ethyl)piperazin-1-yl)-1H-indazol-3-yl)piperidine-2,6-dione] belongs below 150 nM; to `C[C@@H]1CNc2c(sc3ccc4nc(-c5ccc(C(=O)NCCN6CCN(c7ccc(C8CCC(=O)NC8=O)cc7)CC6)cc5F)ccc4c23)C(=O)N1` (stereo partly drawn) [Ex 8, N-(2-(4-(4-(2,6-Dioxopiperidin-3-yl)phenyl)piperazin-1-yl)ethyl)-3-fluoro-4-((R)-10-methyl-8-oxo-9,10,11,12-tetrahydro-8H-[1,4]diazepino[5′,6′:4,5]thieno[3,2-f]quinolin-3-yl)benzamide], below 150 nM.
For `C[C@@H]1COc2c(sc3ccc4nc(-c5ccc(C6CCN(CCN7CCN(c8ccc(C9CCC(=O)NC9=O)cc8)CC7)CC6)cc5)ccc4c23)C(=O)N1` (stereo partly drawn) [Ex 32, 3-(4-(4-(2-(4-(4-((R)-10-Methyl-8-oxo-8,9,10,11-tetrahydro-[1,4]oxazepino[7′,6′:4,5]thieno[3,2-f]quinolin-3-yl)phenyl)piperidin-1-yl)ethyl)piperazin-1-yl)phenyl)piperidine-2,6-dione], the IC50 fell in the range of 151 to 500 nM.
The value for `C[C@@H]1CNc2c(sc3ccc4nc(-c5ccc(N6CCC(CCN7CCN(c8ccc(C9CCC(=O)NC9=O)cc8)CC7)CC6)cc5)ccc4c23)C(=O)N1` (stereo partly drawn) [Ex 39, 3-(4-(4-(2-(1-(4-((R)-10-methyl-8-oxo-9,10,11,12-tetrahydro-8H-[1,4]diazepino[5′,6′:4,5]thieno[3,2-f]quinolin-3-yl)phenyl)piperidin-4-yl)ethyl)piperazin-1-yl)phenyl)piperidine-2,6-dione] was 151 to 500 nM; that for `C[C@@H]1CNc2c(sc3ccc4nc(-c5ccc(C(=O)N[C@H]6CC[C@H](CCN7CCN(c8ccc(C9CCC(=O)NC9=O)cc8)CC7)CC6)cc5F)ccc4c23)C(=O)N1` (stereo partly drawn) [Ex 10, N-((trans)-4-(2-(4-(4-(2,6-Dioxopiperidin-3-yl)phenyl)piperazin-1-yl)ethyl)cyclohexyl)-3-fluoro-4-((R)-10-methyl-8-oxo-9,10,11,12-tetrahydro-8H-[1,4]diazepino[5′,6′:4,5]thieno[3,2-f]quinolin-3-yl)benzamide] was 151 to 500 nM.
To `C[C@@H]1CNc2c(sc3ccc4nc(-c5cnn(C6CCN(CCN7CCN(c8ccc9c(C%10CCC(=O)NC%10=O)nn(C)c9c8)CC7)CC6)c5)ccc4c23)C(=O)N1` (stereo partly drawn) [Ex 44, 3-(1-Methyl-6-(4-(2-(4-(4-((R)-10-methyl-8-oxo-9,10,11,12-tetrahydro-8H-[1,4]diazepino[5′,6′:4,5]thieno[3,2-f]quinolin-3-yl)-1H-pyrazol-1-yl)piperidin-1-yl)ethyl)piperazin-1-yl)-1H-indazol-3-yl)piperidine-2,6-dione] belongs below 150 nM; to `C[C@@H]1COc2c(sc3ccc4nc(C#CC5CCN(C(=O)C(=O)N6CCN(c7ccc(C8CCC(=O)NC8=O)cc7)CC6)CC5)ccc4c23)C(=O)N1` (stereo partly drawn) [Ex 55, 3-(4-(4-(2-(4-(((R)-10-Methyl-8-oxo-8,9,10,11-tetrahydro-[1,4]oxazepino[7′,6′:4,5]thieno[3,2-f]quinolin-3-yl)ethynyl)piperidin-1-yl)-2-oxoacetyl)piperazin-1-yl)phenyl)piperidine-2,6-dione], 501 to 1000 nM.
